Results from ChEMBL document CHEMBL1201862, “PubChem BioAssay data set” (2004).
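96-well plates; 48 h exposure; 5 concentrations. Endpoints by linear interpolation between flanking doses. Not reached: highest tested concentration assigned. GI50: concentration for 50% inhibition of growth.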 Activity calls are given as the source filed them. No stated cut-off is given here; in the data, active = GI50 up to about 1.1 µM and inactive = higher.

Experiments:
Test in all cases: NCI anticancer screen, dose series, 48 h
[1] = tested on: 786-0
[2] = tested on: A498
[3] = tested on: A549
[4] = tested on: ACHN
[5] = tested on: BT-549
[6] = tested on: CAKI-1
[7] = tested on: CCRF-CEM
[8] = tested on: COLO 205
[9] = tested on: DU-145
[10] = tested on: EKVX
[11] = tested on: HCT-116
[12] = tested on: HCT-15
[13] = tested on: HL-60
[14] = tested on: HOP-62
[15] = tested on: HOP-92
[16] = tested on: HT-29
[17] = tested on: Hs-578T
[18] = tested on: IGROV-1
[19] = tested on: K562
[20] = tested on: KM12
[21] = tested on: LOX IMVI
[22] = tested on: M14
[23] = tested on: MCF7
[24] = tested on: MDA-MB-231
[25] = tested on: MDA-MB-435
[26] = tested on: MOLT-4
[27] = tested on: Malme-3M
[28] = tested on: NCI-H226
[29] = tested on: NCI-H23
[30] = tested on: NCI-H460
[31] = tested on: NCI-H522
[32] = tested on: NCI/ADR-RES
[33] = tested on: OVCAR-3
[34] = tested on: OVCAR-4
[35] = tested on: OVCAR-5
[36] = tested on: OVCAR-8
[37] = tested on: PC-3
[38] = tested on: RPMI-8226
[39] = tested on: RXF 393
[40] = tested on: SF-268
[41] = tested on: SF-295
[42] = tested on: SF-539
[43] = tested on: SK-MEL-28
[44] = tested on: SK-MEL-2
[45] = tested on: SK-MEL-5
[46] = tested on: SK-OV-3
[47] = tested on: SN12C
[48] = tested on: SNB-19
[49] = tested on: SNB-75
[50] = tested on: SW-620
[51] = tested on: T47D
[52] = tested on: TK-10
[53] = tested on: U-251
[54] = tested on: UACC-257
[55] = tested on: UACC-62
[56] = tested on: UO-31
[57] = tested on: HCC 2998
[58] = tested on: MDA-N
[59] = tested on: SR

O=C(O)c1ccccc1-c1ccccc1C(=O)Nc1ccc2c(c1)nc(O)c1ccccc12
GI50 [1]: > 100 µM (inactive)
GI50 [2]: 34.3 µM (inactive)
GI50 [3]: > 100 µM (inactive)
GI50 [4]: > 100 µM (inactive)
GI50 [5]: 52.4 µM (inactive)
GI50 [6]: > 100 µM (inactive)
GI50 [7]: 62.8 µM (inactive)
GI50 [8]: > 100 µM (inactive)
GI50 [9]: > 100 µM (inactive)
GI50 [10]: > 100 µM (inactive)
GI50 [11]: > 100 µM (inactive)
GI50 [12]: > 100 µM
GI50 [13]: 94.8 µM (inactive)
GI50 [14]: > 100 µM (inactive)
GI50 [15]: > 100 µM (inactive)
GI50 [16]: > 100 µM (inactive)
GI50 [17]: 98.4 µM (inactive)
GI50 [18]: 94.4 µM (inactive)
GI50 [19]: 39.6 µM (inactive)
GI50 [20]: > 100 µM (inactive)
GI50 [21]: 48.9 µM (inactive)
GI50 [22]: > 100 µM (inactive)
GI50 [23]: > 100 µM (inactive)
GI50 [24]: 88.9 µM (inactive)
GI50 [25]: 89.7 µM (inactive)
GI50 [26]: 25.8 µM (inactive)
GI50 [27]: > 100 µM (inactive)
GI50 [28]: > 100 µM (inactive)
GI50 [29]: > 100 µM (inactive)
GI50 [30]: > 100 µM (inactive)
GI50 [31]: 61.8 µM (inactive)
GI50 [32]: > 100 µM (inactive)
GI50 [33]: > 100 µM (inactive)
GI50 [34]: > 100 µM (inactive)
GI50 [35]: > 100 µM (inactive)
GI50 [36]: > 100 µM (inactive)
GI50 [37]: > 100 µM (inactive)
GI50 [38]: > 100 µM (inactive)
GI50 [39]: > 100 µM (inactive)
GI50 [40]: > 100 µM (inactive)
GI50 [41]: > 100 µM (inactive)
GI50 [42]: 94.2 µM (inactive)
GI50 [43]: > 100 µM (inactive)
GI50 [44]: 87.9 µM (inactive)
GI50 [45]: > 100 µM (inactive)
GI50 [46]: > 100 µM (inactive)
GI50 [47]: > 100 µM (inactive)
GI50 [48]: 83.4 µM (inactive)
GI50 [49]: 93.3 µM (inactive)
GI50 [50]: > 100 µM (inactive)
GI50 [51]: > 100 µM (inactive)
GI50 [52]: > 100 µM (inactive)
GI50 [53]: 51.9 µM (inactive)
GI50 [54]: > 100 µM (inactive)
GI50 [55]: 59.6 µM (inactive)
GI50 [56]: > 100 µM (inactive)

COc1c(N2CCCCC2)c2c(=O)c3ccccc3oc2c2cc(C)oc12
GI50 [1]: 6.35 µM (inactive)
GI50 [2]: 16 µM (inactive)
GI50 [3]: 18.2 µM (inactive)
GI50 [4]: 5.6 µM (inactive)
GI50 [5]: 21.5 µM (inactive)
GI50 [6]: 14.1 µM (inactive)
GI50 [7]: 8.63 µM (inactive)
GI50 [8]: 4.09 µM (inactive)
GI50 [9]: 17.9 µM (inactive)
GI50 [10]: 25.9 µM (inactive)
GI50 [57]: 18.5 µM (inactive)
GI50 [11]: 2.34 µM (inactive)
GI50 [12]: 16.7 µM
GI50 [13]: 20.9 µM (inactive)
GI50 [14]: 9.91 µM (inactive)
GI50 [15]: 7.45 µM (inactive)
GI50 [16]: 3.87 µM (inactive)
GI50 [17]: 18.4 µM (inactive)
GI50 [19]: 6.1 µM (inactive)
GI50 [20]: 16.5 µM (inactive)
GI50 [21]: 14 µM (inactive)
GI50 [22]: 14.8 µM (inactive)
GI50 [23]: 16.7 µM (inactive)
GI50 [24]: 5.26 µM (inactive)
GI50 [25]: 28.6 µM (inactive)
GI50 [58]: 23.7 µM (inactive)
GI50 [26]: 4.03 µM (inactive)
GI50 [27]: 19.3 µM (inactive)
GI50 [28]: 13.3 µM (inactive)
GI50 [29]: 18.5 µM (inactive)
GI50 [30]: 7.78 µM (inactive)
GI50 [32]: 15.3 µM (inactive)
GI50 [33]: 18.8 µM (inactive)
GI50 [34]: 13.9 µM (inactive)
GI50 [35]: 23.5 µM (inactive)
GI50 [36]: 16.9 µM (inactive)
GI50 [37]: 12.7 µM (inactive)
GI50 [38]: 5.94 µM (inactive)
GI50 [39]: 15.6 µM (inactive)
GI50 [40]: 17.9 µM (inactive)
GI50 [41]: 18.8 µM (inactive)
GI50 [42]: 35.9 µM (inactive)
GI50 [43]: 25.4 µM (inactive)
GI50 [44]: 15.9 µM (inactive)
GI50 [45]: 16.5 µM (inactive)
GI50 [46]: 28.1 µM (inactive)
GI50 [47]: 24.8 µM (inactive)
GI50 [48]: 40 µM (inactive)
GI50 [49]: 11.3 µM (inactive)
GI50 [50]: 8.81 µM (inactive)
GI50 [52]: 37.6 µM (inactive)
GI50 [53]: 24.4 µM (inactive)
GI50 [54]: 33 µM (inactive)
GI50 [55]: 17.8 µM (inactive)
GI50 [56]: 11.3 µM (inactive)

O=C1CN2Cc3cc(N4CCOCC4)ccc3N=C2N1
GI50 [2]: 91 µM (inactive)
GI50 [5]: > 100 µM (inactive)
GI50 [6]: 56.5 µM (inactive)
GI50 [7]: 5.43 µM (inactive)
GI50 [8]: 32.1 µM (inactive)
GI50 [9]: 49.5 µM (inactive)
GI50 [11]: 21.3 µM (inactive)
GI50 [12]: 22.9 µM
GI50 [13]: 72.6 µM (inactive)
GI50 [14]: 47.1 µM (inactive)
GI50 [15]: > 100 µM (inactive)
GI50 [16]: 38 µM (inactive)
GI50 [17]: 23.8 µM (inactive)
GI50 [18]: 27.5 µM (inactive)
GI50 [19]: 2.91 µM (inactive)
GI50 [20]: 43.3 µM (inactive)
GI50 [21]: > 100 µM (inactive)
GI50 [22]: 33 µM (inactive)
GI50 [23]: 60.8 µM (inactive)
GI50 [24]: 88.1 µM (inactive)
GI50 [25]: 22.9 µM (inactive)
GI50 [26]: 25 µM (inactive)
GI50 [27]: 89.1 µM (inactive)
GI50 [28]: 44.6 µM (inactive)
GI50 [29]: 20.3 µM (inactive)
GI50 [30]: 41.5 µM (inactive)
GI50 [32]: 31.3 µM (inactive)
GI50 [33]: 30.1 µM (inactive)
GI50 [34]: 67.9 µM (inactive)
GI50 [35]: 87.3 µM (inactive)
GI50 [36]: 72.9 µM (inactive)
GI50 [37]: 31.4 µM (inactive)
GI50 [38]: 67 µM (inactive)
GI50 [39]: 73.3 µM (inactive)
GI50 [41]: 38.6 µM (inactive)
GI50 [43]: > 100 µM (inactive)
GI50 [44]: 42.7 µM (inactive)
GI50 [45]: 27.8 µM (inactive)
GI50 [46]: 25.8 µM (inactive)
GI50 [47]: 63.5 µM (inactive)
GI50 [48]: > 100 µM (inactive)
GI50 [49]: 31.5 µM (inactive)
GI50 [59]: 66.1 µM (inactive)
GI50 [50]: 47.1 µM (inactive)
GI50 [51]: > 100 µM (inactive)
GI50 [52]: > 100 µM (inactive)
GI50 [53]: 39.4 µM (inactive)
GI50 [54]: 89.1 µM (inactive)
GI50 [55]: 26.2 µM (inactive)
GI50 [56]: 33.4 µM (inactive)
